These results are taken from patent publication US20250129101A1, “Compound, Pharmaceutical Composition Comprising the Same and Method for Treating Cancer Using the Same” (NATIONAL TSING HUA UNIVERSITY, priority 2023, published 2025).

Broadly, the EC50 is the concentration at which the effect is half-maximal. The low end stands for greater potency, the high end for weaker potency. The term IC50 denotes the concentration that inhibits the measured activity by half.

Test [1] addresses T1, KIF2C (Homo sapiens, UniProt Q99661).
T1 construct: KIF2C (216-598 a.a.); 6xHis (C); made in house; host or cells: E. coli BL21 (DE3), pET-28a
Kind of test: In vitro validation: KIF2C kinesin activity, malachite green-based phosphate colorimetric assay. Type of test: biochemical. Put shortly: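 KIF2C sN+M construct (aa 216-598, C-terminal 6×His, E. coli-expressed) ATPase activity with microtubules from porcine brain tubulin or HEK293 (293Fs) cells in BRB80 (80 mM PIPES pH 6.8, 1 mM GTP, 10% DMSO), 37° C for 2 hr. Released phosphate detected by malachite green reagent, 10 min, A650.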

For test [2], the system named is MDA-MB-231 R, MDA-MB-231 S, 4T1 S1, R4, and R8 cells. In words: Cell viability of indicated cell lines, DHTP or 7S9 for 72 hr. Type of test: cell-based. Conditions: Homo sapiens, range over MDA-MB-231 R, read-out: cytotoxicity IC50 values. On the procedure: The cancer cells were cultured in a 96-well plate at a confluence of 1000-2000 cells/well with indicated drugs for specific days. When the time was up, the culture medium in the plate was aspirated and replaced with a prepared CellTiter-Glo reagent/DMEM mixture (1:1 mix of CellTiter-Glo reagent and serum-supplemented DMEM). After incubation for 10 min, the luminescence (proportional to the number of living cells) was measured with an ELISA plate reader to determine the cell viability.

Test [3] deals with T1, KIF2C. In words: In vitro microtubule depolymerization assay. Type of test: biochemical. The conditions noted are these: 50 μM 7S9, recombinant KIF2C and ATP, 30 min. The method, then: Additional purified KIF2C (0.5 ng/μl), ATP (0.75 mM), and 7S9 (50 μM) were included in a typical 10 μL reaction, as indicated, loaded onto a p-Slide (Ibidi, 81506) and incubated at 37° C. for 30 min. Images were acquired using the Leica DMI6000 microscope with an HCX PL FL 20×/0.4 and Andor Neo sCMOS camera, which were all processed by MetaMorph software (Molecular Devices, LLC. San Jose, CA, USA).

The subject of test [4] is HeLa cells expressing H2B-mCherry and eGFP-tubulin. In words: Live-cell imaging of intracellular microtubule distribution. Type of test: cell-based. On the procedure:
For the microtubule distribution analysis, HeLa cell line stably expressing H2B-mCherry and eGFP-tubulin (a kind gift from Anthony A. Hyman, Max-Planck-Institute for Molecular Cell Biology and Genetics, Dresden, Germany) were treated with KIF2C inhibitors (10 μM DHTP or 10 μM 7S9) during imaging. Live-cell imaging was conducted on a Nikon T1 inverted fluorescence microscope (Nikon) with a 60× oil objective (Nikon), a Prime camera (Photometrics), and 37° C., 5% CO2 heat stage (Live Cell Instrument). Microtubule morphological changes were imaged at 3-min intervals. Images were obtained using ImageJ software processed with Gaussian Blur to remove the noise.

Test [5] has as its system 4T1 R4 cells. Kind of test: Colony formation assay, 4T1 R4 cells. The conditions noted are these: 1 μM 7S9 with 400 nM paclitaxel. Type of test: cell-based, mouse. On the procedure: To assess the long-term survival of breast cancer cell lines following the treatment of KIF2C knockdown or inhibition, the cells trypsinized into single-cell suspension were homogeneously seeded in 6-well cell culture plates at a density of 5000 cells per dish, supplemented with 2× complete medium (50% 4×DMEM, 20% FBS, 2% penicillin-streptomycin, ddH2O, and 2× glutaMAX™), agarose (0.6% for bottom agar layer; 0.3% for top cell layer), ddH2O, and DMEM. After incubation for 24 hr, cells were treated with indicated drugs, such as DMSO, KIF2C inhibitors, or chemotherapy drugs, and then cultured at 37° C. incubator in an atmosphere of humidified air with 5% CO2 for a further 14-30 days. When the cell colonies grew to appropriate sizes, the culture mediums were replaced with PBS for washing. After that, the plates were stained with 10% crystal violet and analyzed using Image J.

T1 sequence (Q99661 216-598): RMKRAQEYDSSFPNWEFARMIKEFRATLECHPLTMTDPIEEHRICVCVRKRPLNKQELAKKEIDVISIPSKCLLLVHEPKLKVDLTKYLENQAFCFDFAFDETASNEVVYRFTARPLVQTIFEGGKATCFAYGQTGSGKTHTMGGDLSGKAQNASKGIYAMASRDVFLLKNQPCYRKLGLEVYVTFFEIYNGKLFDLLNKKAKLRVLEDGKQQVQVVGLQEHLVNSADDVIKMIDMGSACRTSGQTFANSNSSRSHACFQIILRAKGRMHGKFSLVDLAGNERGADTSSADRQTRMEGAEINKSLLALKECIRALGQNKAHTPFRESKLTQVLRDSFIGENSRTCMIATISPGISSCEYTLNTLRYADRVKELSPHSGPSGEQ

With `CCN1CCN(C(=O)COc2ccc(/C=c3\sc4n(c3=O)C(c3ccc(Cl)cc3)C(C(=O)OC(C)C)=C(C)N=4)cc2)CC1.O=C(O)/C=C\C(=O)O` (centres unmarked) [7S9 (133), isopropyl (Z)-5-(4-chlorophenyl)-2-(4-(2-(4-ethylpiperazin-1-yl)-2-oxoethoxy)benzylidene)-7-methyl-3-oxo-2,3-dihydro-5H-thiazolo[3,2-a]pyrimidine-6-carboxylate maleate], in test [1] (50 μM (FIG. 4I)), the “inhibitory effect against KIF2C (in words)” value is reported as “selective inhibition against KIF2C”. For the same molecule, the “KIF2C activity in the presence of paclitaxel (in words)” value in test [1] (100 μM 7S9, 1 μM paclitaxel) is “could successfully inhibit KIF2C activity in the presence of paclitaxel”. Also, in test [1] (100 μM (FIG. 4B)), the “inhibition of KIF2C kinesin activity (in words)” value is on record as “most potent inhibitor of KIF2C”. Besides, the EC50 in test [1] (concentration that inhibits 50% of KIF2C activity) is less than 50 µM. In addition, the IC50 in test [2] was in the range of 4.9 to 8.6 µM. In addition, the “KIF2C-mediated microtubule depolymerization (in words)” value in test [3] is “completely blocked”. The “intracellular microtubule distribution phenotype (in words)” value in test [4] is listed as “puncta formation of tubulins in the cytoplasm”. Further, the “colony formation, combined treatment (in words)” value in test [5] was “suppression of colony formation was detected only with combined treatment of 7S9 and paclitaxel”.
